Each structure is given as a SMILES string.

In assay [1] the target is Rho-associated protein kinase 2 (Rattus norvegicus) (UniProt Q62868). In words: Inhibition of rat ROCK2 assessed as residual activity at 10 uM relative to control.
For assay [2], the target named is Ribosomal protein S6 kinase alpha-3 (Homo sapiens) (UniProt P51812). Description: Inhibition of human RSK2 assessed as residual activity at 10 uM relative to control.
Assay [3] has as its target Proto-oncogene tyrosine-protein kinase Src (Homo sapiens) (UniProt P12931). Description: Inhibition of human SRC assessed as residual activity at 10 uM relative to control.
The target in assay [4] is SRSF protein kinase 1 (Homo sapiens) (UniProt Q96SB4). In words: Inhibition of human SRPK1 assessed as residual activity at 10 uM relative to control.
Assay [5] addresses Serine/threonine-protein kinase PLK1 (Homo sapiens) (UniProt P53350). In words: Inhibition of human PLK1 assessed as residual activity at 10 uM relative to control.
Assay [6] addresses Cyclin-dependent kinase 2 (Homo sapiens) (UniProt P24941). Description: Inhibition of human CDK2 assessed as residual activity at 10 uM relative to control.
Assay [7] addresses T1, Eukaryotic elongation factor 2 kinase (Homo sapiens) (UniProt O00418).
T1 sequence (whole entry): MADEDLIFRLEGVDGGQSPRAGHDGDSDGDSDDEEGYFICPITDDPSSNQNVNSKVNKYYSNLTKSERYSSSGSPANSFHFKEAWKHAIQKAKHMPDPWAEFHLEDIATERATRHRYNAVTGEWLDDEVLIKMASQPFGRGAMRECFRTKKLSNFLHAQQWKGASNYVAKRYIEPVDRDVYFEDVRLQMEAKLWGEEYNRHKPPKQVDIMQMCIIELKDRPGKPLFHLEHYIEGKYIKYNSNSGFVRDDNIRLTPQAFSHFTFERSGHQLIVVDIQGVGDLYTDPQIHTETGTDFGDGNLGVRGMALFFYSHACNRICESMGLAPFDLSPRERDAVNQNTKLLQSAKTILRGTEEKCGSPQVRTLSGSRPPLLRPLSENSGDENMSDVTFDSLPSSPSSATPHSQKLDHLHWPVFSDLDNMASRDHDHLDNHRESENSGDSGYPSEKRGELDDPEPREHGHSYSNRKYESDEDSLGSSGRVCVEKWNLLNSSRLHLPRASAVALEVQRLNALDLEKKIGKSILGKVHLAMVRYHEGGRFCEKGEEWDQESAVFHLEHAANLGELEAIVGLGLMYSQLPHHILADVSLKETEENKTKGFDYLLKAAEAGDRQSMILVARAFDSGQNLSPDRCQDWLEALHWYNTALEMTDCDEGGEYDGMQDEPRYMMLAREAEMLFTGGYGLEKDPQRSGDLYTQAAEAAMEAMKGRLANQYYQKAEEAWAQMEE
In words: Inhibition of human EF2K assessed as residual activity at 1 uM relative to control.

Assay [8] has as its target Serine/threonine-protein kinase PAK 4 (Homo sapiens) (UniProt O96013). In words: Inhibition of human PAK4 assessed as residual activity at 10 uM relative to control.
The target in assay [9] is T2, Serine/threonine-protein kinase Sgk1 (Homo sapiens) (UniProt O00141).
T2 sequence (whole entry): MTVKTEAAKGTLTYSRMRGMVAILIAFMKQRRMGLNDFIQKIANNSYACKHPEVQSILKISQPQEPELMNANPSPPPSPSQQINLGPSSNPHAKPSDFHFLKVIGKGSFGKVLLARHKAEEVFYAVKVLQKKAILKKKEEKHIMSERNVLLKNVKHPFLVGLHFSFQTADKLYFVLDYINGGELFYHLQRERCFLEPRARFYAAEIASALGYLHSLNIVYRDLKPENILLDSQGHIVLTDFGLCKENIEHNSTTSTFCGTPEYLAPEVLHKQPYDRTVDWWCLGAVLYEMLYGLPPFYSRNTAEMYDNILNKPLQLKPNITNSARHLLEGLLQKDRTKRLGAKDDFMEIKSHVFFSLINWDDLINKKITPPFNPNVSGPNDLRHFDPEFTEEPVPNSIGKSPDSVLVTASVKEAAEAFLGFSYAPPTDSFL
In words: Inhibition of human SGK1 assessed as residual activity at 10 uM relative to control.

Assay [10] addresses Fibroblast growth factor receptor 1 (Homo sapiens, UniProt P11362). Description: Inhibition of human FGFR1 assessed as residual activity at 1 uM relative to control.
In assay [11] the target is 3-phosphoinositide-dependent protein kinase 1 (Homo sapiens) (UniProt O15530). Description: Inhibition of human PDK1 assessed as residual activity at 10 uM relative to control.
Assay [12] has as its target T3, Inhibitor of nuclear factor kappa-B kinase subunit epsilon (Homo sapiens) (UniProt Q14164).
T3 sequence (whole entry): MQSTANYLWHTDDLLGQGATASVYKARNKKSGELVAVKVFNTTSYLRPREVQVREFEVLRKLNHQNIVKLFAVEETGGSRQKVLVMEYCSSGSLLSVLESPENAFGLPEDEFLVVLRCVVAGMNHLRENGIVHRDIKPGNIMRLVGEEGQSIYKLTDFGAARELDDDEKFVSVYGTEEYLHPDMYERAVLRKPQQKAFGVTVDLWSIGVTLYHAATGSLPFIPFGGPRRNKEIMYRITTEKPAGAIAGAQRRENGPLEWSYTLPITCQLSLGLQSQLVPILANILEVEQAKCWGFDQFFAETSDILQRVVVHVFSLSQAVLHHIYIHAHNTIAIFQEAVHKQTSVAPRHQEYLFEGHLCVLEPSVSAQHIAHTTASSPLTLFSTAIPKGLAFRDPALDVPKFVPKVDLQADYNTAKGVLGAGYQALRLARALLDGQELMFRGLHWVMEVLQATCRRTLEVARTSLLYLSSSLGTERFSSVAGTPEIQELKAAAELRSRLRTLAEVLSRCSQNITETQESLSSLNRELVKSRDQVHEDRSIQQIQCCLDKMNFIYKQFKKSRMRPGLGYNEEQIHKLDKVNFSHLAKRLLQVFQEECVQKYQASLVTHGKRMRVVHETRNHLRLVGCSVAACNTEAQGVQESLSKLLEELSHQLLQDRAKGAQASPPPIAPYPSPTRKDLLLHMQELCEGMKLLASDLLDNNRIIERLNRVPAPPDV
In words: Inhibition of human IKKepsilon assessed as residual activity at 1 uM relative to control.

The next assay is filed under the species Oryctolagus cuniculus. In words: Inhibition of rabbit MKK1 assessed as residual activity at 10 uM relative to control.
Assay [13] addresses Serine/threonine-protein kinase Chk2 (Homo sapiens) (UniProt O96017). Description: Inhibition of human CHK2 assessed as residual activity at 1 uM relative to control.
The target in assay [14] is Cyclin-dependent kinase 2 (Homo sapiens) (UniProt P24941). Description: Inhibition of human CDK2 assessed as residual activity at 1 uM relative to control.
Assay [15] concerns the target T1, Eukaryotic elongation factor 2 kinase (Homo sapiens). Description: Inhibition of human EF2K assessed as residual activity at 10 uM relative to control.
Assay [16] has as its target Ribosomal protein S6 kinase alpha-5 (Homo sapiens) (UniProt O75582). In words: Inhibition of human MSK1 assessed as residual activity at 10 uM relative to control.

Serine/threonine-protein kinase PLK1 (Homo sapiens), sequence (P53350 whole entry): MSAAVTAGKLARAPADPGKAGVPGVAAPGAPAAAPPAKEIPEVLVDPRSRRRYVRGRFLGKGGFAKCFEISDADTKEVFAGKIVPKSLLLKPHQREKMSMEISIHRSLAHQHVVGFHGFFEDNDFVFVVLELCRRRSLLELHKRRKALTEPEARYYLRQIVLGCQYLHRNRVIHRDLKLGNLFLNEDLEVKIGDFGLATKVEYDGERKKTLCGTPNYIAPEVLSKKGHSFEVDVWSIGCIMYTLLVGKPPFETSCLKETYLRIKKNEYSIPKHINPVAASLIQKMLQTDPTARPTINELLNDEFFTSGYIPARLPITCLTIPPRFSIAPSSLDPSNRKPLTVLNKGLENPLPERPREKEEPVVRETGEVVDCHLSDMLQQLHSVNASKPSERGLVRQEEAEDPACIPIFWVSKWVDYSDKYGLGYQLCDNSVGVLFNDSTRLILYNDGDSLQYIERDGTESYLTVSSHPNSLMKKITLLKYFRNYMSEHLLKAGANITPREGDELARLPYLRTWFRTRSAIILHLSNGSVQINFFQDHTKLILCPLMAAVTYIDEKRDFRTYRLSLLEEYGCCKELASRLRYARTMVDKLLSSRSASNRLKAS
Serine/threonine-protein kinase PAK 4 (Homo sapiens), sequence (O96013 whole entry, looked up): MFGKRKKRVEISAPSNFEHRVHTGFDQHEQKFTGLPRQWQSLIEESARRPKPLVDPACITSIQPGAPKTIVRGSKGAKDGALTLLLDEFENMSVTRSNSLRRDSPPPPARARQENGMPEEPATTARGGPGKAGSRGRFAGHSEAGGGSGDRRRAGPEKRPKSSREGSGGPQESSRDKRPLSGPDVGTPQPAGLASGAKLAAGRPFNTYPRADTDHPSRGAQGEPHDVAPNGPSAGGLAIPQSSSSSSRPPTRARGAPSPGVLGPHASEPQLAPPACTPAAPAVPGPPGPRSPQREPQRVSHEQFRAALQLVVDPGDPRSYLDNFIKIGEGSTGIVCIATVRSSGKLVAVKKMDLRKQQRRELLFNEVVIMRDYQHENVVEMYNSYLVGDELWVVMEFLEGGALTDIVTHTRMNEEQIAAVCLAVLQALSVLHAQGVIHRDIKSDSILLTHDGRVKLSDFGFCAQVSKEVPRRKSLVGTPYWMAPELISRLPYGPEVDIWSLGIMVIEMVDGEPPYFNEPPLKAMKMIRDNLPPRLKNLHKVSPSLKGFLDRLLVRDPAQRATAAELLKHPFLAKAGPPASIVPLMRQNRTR
SRSF protein kinase 1 (Homo sapiens), sequence (Q96SB4 whole entry): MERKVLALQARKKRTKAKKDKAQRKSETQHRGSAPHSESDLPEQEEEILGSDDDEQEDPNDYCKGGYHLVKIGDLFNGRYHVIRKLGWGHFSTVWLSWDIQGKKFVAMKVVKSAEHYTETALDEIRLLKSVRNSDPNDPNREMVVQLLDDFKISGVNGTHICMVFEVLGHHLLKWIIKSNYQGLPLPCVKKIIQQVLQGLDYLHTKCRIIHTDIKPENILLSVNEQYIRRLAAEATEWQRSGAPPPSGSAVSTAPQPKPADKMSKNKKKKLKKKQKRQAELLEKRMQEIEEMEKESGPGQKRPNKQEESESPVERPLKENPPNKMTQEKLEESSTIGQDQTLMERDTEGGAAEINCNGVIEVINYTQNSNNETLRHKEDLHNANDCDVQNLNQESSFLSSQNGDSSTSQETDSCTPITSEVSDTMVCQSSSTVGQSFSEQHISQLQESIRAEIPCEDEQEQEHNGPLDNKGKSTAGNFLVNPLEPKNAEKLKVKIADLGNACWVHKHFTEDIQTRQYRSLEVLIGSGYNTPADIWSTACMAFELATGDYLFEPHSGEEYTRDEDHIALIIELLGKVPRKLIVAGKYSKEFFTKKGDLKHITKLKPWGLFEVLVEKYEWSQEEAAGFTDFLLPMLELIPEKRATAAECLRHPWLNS
Ribosomal protein S6 kinase alpha-5 (Homo sapiens), sequence (O75582 whole entry, looked up): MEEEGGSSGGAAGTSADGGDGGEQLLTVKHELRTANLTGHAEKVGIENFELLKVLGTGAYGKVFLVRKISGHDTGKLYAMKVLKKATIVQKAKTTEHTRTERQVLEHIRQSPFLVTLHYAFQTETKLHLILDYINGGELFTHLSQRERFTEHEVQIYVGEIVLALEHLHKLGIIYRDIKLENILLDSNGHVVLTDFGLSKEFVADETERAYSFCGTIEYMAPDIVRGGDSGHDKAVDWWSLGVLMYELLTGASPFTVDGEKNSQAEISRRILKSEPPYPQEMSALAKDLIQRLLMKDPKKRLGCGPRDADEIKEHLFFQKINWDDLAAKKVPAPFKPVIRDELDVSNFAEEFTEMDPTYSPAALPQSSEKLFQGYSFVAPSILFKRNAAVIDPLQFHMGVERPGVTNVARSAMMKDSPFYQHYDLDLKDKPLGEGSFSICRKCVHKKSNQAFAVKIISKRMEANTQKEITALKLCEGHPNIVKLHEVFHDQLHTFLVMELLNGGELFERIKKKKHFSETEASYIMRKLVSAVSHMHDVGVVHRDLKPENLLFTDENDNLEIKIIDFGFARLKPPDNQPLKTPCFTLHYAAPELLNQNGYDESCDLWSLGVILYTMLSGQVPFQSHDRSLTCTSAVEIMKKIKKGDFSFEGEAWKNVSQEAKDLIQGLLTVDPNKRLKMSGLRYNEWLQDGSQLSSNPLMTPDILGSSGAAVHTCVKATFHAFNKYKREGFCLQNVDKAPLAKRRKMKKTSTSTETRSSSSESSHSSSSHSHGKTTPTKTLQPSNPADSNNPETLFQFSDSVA
Rho-associated protein kinase 2 (Rattus norvegicus), sequence (Q62868 whole entry, looked up): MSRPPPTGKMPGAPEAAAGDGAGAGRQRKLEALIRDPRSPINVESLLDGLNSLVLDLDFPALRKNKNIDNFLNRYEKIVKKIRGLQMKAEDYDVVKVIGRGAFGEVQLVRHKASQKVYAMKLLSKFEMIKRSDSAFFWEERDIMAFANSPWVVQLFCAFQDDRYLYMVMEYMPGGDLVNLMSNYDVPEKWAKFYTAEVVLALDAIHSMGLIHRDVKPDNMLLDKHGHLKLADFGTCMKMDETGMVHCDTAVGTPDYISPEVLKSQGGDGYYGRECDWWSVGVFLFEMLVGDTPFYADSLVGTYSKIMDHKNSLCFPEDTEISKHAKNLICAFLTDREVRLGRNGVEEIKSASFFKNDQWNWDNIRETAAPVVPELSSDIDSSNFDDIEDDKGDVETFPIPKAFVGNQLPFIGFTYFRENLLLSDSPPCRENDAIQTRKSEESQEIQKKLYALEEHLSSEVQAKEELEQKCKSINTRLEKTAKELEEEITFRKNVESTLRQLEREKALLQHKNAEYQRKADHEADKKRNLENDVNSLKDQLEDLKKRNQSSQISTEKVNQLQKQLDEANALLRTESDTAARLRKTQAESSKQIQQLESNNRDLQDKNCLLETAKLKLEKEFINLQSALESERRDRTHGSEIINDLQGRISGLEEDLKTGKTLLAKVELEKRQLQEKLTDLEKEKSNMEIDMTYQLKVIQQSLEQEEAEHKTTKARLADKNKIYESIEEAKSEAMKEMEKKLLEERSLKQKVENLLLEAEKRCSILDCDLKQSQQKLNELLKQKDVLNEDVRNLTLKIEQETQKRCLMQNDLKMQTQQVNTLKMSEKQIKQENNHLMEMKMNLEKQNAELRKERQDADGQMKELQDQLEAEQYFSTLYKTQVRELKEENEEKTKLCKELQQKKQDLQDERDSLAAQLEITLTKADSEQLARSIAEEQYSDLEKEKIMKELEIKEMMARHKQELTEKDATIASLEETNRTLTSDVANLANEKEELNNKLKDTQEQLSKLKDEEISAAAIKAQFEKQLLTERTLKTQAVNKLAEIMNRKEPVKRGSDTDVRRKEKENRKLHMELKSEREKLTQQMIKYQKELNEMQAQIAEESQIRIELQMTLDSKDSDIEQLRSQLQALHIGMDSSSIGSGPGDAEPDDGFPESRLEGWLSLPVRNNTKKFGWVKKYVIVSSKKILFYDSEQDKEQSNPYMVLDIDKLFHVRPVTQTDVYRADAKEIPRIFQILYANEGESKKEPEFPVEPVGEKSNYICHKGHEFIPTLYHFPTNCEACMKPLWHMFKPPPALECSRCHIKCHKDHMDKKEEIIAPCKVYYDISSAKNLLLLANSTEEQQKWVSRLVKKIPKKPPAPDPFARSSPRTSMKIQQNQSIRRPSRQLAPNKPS
Fibroblast growth factor receptor 1, sequence (P11362 22-822 limits assumed): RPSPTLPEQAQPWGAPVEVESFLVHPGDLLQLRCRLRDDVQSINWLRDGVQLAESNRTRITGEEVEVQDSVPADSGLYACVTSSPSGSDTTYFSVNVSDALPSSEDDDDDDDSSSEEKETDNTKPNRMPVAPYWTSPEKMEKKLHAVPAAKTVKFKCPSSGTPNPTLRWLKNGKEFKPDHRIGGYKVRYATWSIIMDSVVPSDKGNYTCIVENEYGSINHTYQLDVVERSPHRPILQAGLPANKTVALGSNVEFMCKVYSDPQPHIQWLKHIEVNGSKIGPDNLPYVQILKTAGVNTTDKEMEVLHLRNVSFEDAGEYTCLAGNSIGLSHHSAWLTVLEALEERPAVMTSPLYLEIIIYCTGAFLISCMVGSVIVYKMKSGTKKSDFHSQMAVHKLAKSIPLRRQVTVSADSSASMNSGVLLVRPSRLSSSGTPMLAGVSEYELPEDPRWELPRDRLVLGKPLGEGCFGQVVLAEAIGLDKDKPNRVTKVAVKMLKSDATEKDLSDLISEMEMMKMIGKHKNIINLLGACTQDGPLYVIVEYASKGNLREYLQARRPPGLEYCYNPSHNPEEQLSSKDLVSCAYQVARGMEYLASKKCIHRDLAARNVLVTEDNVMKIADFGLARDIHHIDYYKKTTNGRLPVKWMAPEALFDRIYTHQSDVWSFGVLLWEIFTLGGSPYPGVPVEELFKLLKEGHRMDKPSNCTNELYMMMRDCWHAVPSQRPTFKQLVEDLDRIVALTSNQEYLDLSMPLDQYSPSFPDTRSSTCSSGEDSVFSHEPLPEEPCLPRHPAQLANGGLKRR

For the molecule `CC(=O)Nc1cccc(-c2cnc3[nH]nc(C)c3c2)c1`, the Activity in [1] was 58.7%; in assay [2], 78.3%; in [3] it was 23.8%; in assay [4], 89%; in assay [5], 95.5%; in assay [6], 40.3%. For the same molecule, the Activity stood at 112% in [7]; 51.9% in [8]; 61.9% in assay [9]; 107% in assay [10]; 70.4% in assay [11]; 93.8% in assay [12]. The Activity in the assay listed under Oryctolagus cuniculus came out at 45.9%; in assay [13], 68.5%; in assay [14], 76.7%; in [15], 106%; in assay [16] it was 63.5%.
For `CC(=O)Nc1nccc(-c2c(-c3ccccc3)noc2C)n1`, the Activity in assay [1] was 92.3%; in [2], 103%; in assay [3] it was 91.9%; in assay [4], 91.3%; in assay [5], 81.6%; in [6], 104%. Besides, the Activity in assay [7] worked out at 83.2%; in assay [8] it was 106%; in [9], 21.4%; in assay [10] it was 99.8%; in [11], 66%; in assay [12], 85.1%. Further, the Activity in the assay filed under Oryctolagus cuniculus amounted to 66.8%; in assay [13], 89.5%; in [14], 92.2%; in [15] it was 83%; in assay [16], 67.1%.
As for `CCCC(=O)Nc1n[nH]c2ncc(-c3cccnc3)cc12`, the Activity was determined as 111% in assay [1]; 87% in assay [2]; 72% in assay [3]; 91% in assay [4]; 80% in assay [5]; 5% in assay [6]. The Activity in assay [7] stood at 106%; in assay [8] it was 79%; in assay [9], 82%; in assay [10], 92%; in assay [11], 98%; in [12] it was 113%. Moreover, the Activity in the assay listed under Oryctolagus cuniculus turned out to be 103%; in assay [13], 96%; in assay [14] it was 9%; in assay [15], 95%; in assay [16] it was 78%.

The record behind these values is ChEMBL document CHEMBL2429821, “A Casein kinase 1/Checkpoint kinase 1 pyrazolo-pyridine protein kinase inhibitor as novel activator of the p53 pathway” (Bioorg Med Chem Lett, 2013).
